The values that follow come from US9421187B2, “Phytocannabinoids for use in the treatment of intestinal inflammatory diseases” (GW Pharma Limited, priority 2011, dated 2016).

Entries after “also recorded” stand apart in the source; their conditions may differ.

In series [1] the test system is LPS-stimulated nitrite levels in mouse peritoneal macrophages. The experiment in a line: Nitrites measurement in medium of LPS-stimulated macrophages. It counts as cell-based. As to conditions: non-cytotoxic concentrations (0.1-10 pM), 30 min pre-treatment, then LPS 1 μg/ml 18 hours, FIG. 3 and 4. The method, then:
Briefly, to evoke the production of peritoneal exudates rich in macrophages, mice were injected intraperitoneally (i.p.) with 1 ml of 10% sterile thioglycollate (Sigma, Milan, Italy). After 4 days, mice were euthanized and peritoneal macrophages were collected and seeded in appropriate plates for performing in vitro experiments.
Peritoneal macrophages were cultured in Dulbecco's modified Eagle's medium (DMEM) supplemented with 10% fetal bovine serum. […] The response in macrophages was measured after 18 h LPS incubation.
Nitrites, stable metabolites of NO, were measured in macrophages medium as previously described. Macrophages (5×10^5 cells per well seeded in a 24-well plate) were incubated with test article ([…]) for 30 min, and subsequently with LPS (1 μg/ml) for 18 hours.
The test articles were used at non-cytotoxic concentrations as a pre-treatment for 30 min before LPS-stimulation.

Series [2] concerns DNBS-induced colitis mice. The experiment in a line: DNBS-induced colitis, body weight and colon weight/colon length ratio. It counts as in vivo, mouse. As for the experimental part: (§1) Cannabigerol (CBG), cannabichromene (CBC) and tetrahydrocannabivarin (THCV) were dissolved in ethanol/Tween20/saline. Animals were placed in groups and administered with test article (60 μl per mouse) via IP once daily. Treatment started 3 days before DNBS administration for the preventative treatment experiments or 1 day after DNBS administration for the curative treatments. Test article was administered daily until the sacrifice of the animals, 3 days after DNBS treatment. THCV was only tested for a curative effect.
(§2) Colitis was induced in mice by the intra-colonic administration of DNBS. Briefly, mice were anesthetized and DNBS (8 mg/mouse) was inserted into the colon using a polyethylene catheter (1 mm in diameter) via the rectum (4.5 cm from the anus). Three days after DNBS administration, all animals were euthanized by asphyxiation with CO2. The abdomen was opened by a midline incision and the colon removed, isolated from surrounding tissues, opened along the anti-mesenteric border, rinsed, weighed, length measured, and processed for evaluations.
The colon weight/colon length ratio activity were determined as index of inflammation. Body weight was also evaluated.

The subject of series [3] is inducible nitric oxide synthase (iNOS). The experiment in a line: iNOS expression in full-thickness colons by western blot, DNBS-induced colitis. The settings on record: DNBS-treated mice, FIG. 11. It counts as in vivo, mouse. As for the experimental part: as §1, §2
iNOS expression was measured in full-thickness colons from control and DNBS-treated mice by western blot analysis.

In series [4] the test system is mouse peritoneal macrophages. The experiment in a line: Cytotoxicity assays (MTT cell respiration and neutral red uptake). It counts as cell-based. As to conditions: isolated phytocannabinoids, 24 hours incubation, highest 10 μM concentration, FIG. 1. As for the experimental part: Peritoneal macrophages were obtained from mice as previously described by Rossi et al. (Rossi et al. 2010). Briefly, to evoke the production of peritoneal exudates rich in macrophages, mice were injected intraperitoneally (i.p.) with 1 ml of 10% sterile thioglycollate (Sigma, Milan, Italy). After 4 days, mice were euthanized and peritoneal macrophages were collected and seeded in appropriate plates for performing in vitro experiments.
Peritoneal macrophages were cultured in Dulbecco's modified Eagle's medium (DMEM) supplemented with 10% fetal bovine serum. The inflammatory response in peritoneal macrophages was induced by lipopolysaccharide (LPS) from Escherichia coli serotype 0111:B4 (1 μg/ml). The response in macrophages was measured after 18 h LPS incubation.
Cell viability was assessed by evaluating cell respiration as well as neutral red (NR) uptake. Cell respiration was assessed by the mitochondrial-dependent reduction of 3-(4,5-dimethylthiazol-2-yl)-2,5-diphenyltetrazolium bromide (MTT) to formazan. After incubation with one of the phytocannabinoids for 24 hours, macrophages (1×10^5 cells per well seeded in a 96-well plate) were incubated with MTT (250 μg/ml) for 1 h.
The extent of reduction of MTT to formazan was quantitated by measuring the optical density at 490 nm (iMark™ microplate assorbance reader, BioRad). […]

The subject of series [5] is DNBS model of intestinal bowel disease in mice. As to conditions: cited from earlier work.
Where [6] appears, read: post-treatment (curative), IP once daily from 1 day after DNBS.
The mark [7] stands for this setting: pre-treatment (preventative), IP once daily from 3 days before DNBS.
Setting [8] is: treatment after induction of colitis (curative), IP once daily from 1 day after DNBS.

In the case of `CCCCCc1cc(O)c(C/C=C(\C)CCC=C(C)C)c(O)c1` [CBG, Cannabigerol], the LPS-stimulated nitrite levels result in series [1] is recorded as “significantly reduced; also recorded: reduce LPS-stimulated nitrite production”. Besides, the “colon weight:colon length ratio” value in series [2] (setting [6]) and in series [2] (setting [7]) was “significant (p<0.05) reduction” throughout. For the same compound, the “body weight (decrease associated with the inflammatory response)” value in series [2] (setting [7]) is on record as “highly statistically significant (p<0.001) prevention of the decrease in bodyweight”; in series [2] (setting [8]), “did however not result in a decrease in body weight”. Moreover, the “level of expression of iNOS in colonic tissues” value (“level of expression of iNOS” below) in series [3] is reported as “statistically significantly (p<0.05) lower”.
For the compound `CCCc1cc(O)c2c(c1)OC(C)(C)[C@@H]1CCC(C)=C[C@@H]21` [THCV, Tetrahydrocannabivarin], the “cytotoxicity / cell viability” value in series [4] is “significantly reduced cell viability”. For the same compound, the LPS-stimulated nitrite levels result in series [1] was “significantly reduced; also recorded: reduce LPS-stimulated nitrite production”. Moreover, the “colon weight:colon length ratio” value in series [2] (setting [6]) is recorded as “significant (p<0.05) reduction”. Besides, the “body weight (decrease associated with the inflammatory response)” value in series [2] (setting [8]) is recorded as “prevention of the decrease in bodyweight that is associated with the inflammatory response, however this decrease was not statistically significant”. Also, the “level of expression of iNOS” value in series [3] was “statistically significantly (p<0.001) lower”.
With `CCCCCc1cc(O)c2c(c1)OC(C)(CCC=C(C)C)C=C2` (centres unmarked) [CBC, Cannabichromene], the “cytotoxicity / cell viability” value in series [4] is reported as “significantly reduced cell viability”. The LPS-stimulated nitrite levels entry in series [1] is recorded as “reduce LPS-stimulated nitrite production”. The “colon weight:colon length ratio” value was “decrease in the colon weight:length ration however this was not as statistically significant” in series [2] (setting [6]) and “significant (p<0.05) reduction” in series [2] (setting [7]). For the same compound, the “body weight (decrease associated with the inflammatory response)” value in series [2] (setting [7]) was “significant (p<0.05) prevention of the decrease in bodyweight”; in series [2] (setting [8]), “did not however result in a decrease in body weight”. Besides, in series [3], the “level of expression of iNOS” value is “did not show a reduction”.
For `C=C(C)[C@@H]1CCC(C)=C[C@H]1c1c(O)cc(CCC)cc1O` [CBDV, Cannabidivarin], in series [1], the LPS-stimulated nitrite levels result was “reduce LPS-stimulated nitrite production”.
Turning to `C=C(C)[C@@H]1CCC(C)=C[C@H]1c1c(O)cc(CCCCC)cc1O` [CBD, Cannabidiol], the “anti-inflammatory effect in DNBS model” value in series [5] is “anti-inflammatory effect”.
